Results as given in paper PMC7996170, “Novel Method for Quantifying AhR-Ligand Binding Affinities Using Microscale Thermophoresis” (Biosensors, 2021).
Like-named read-outs stand apart in the source and are kept apart here.

What was measured:
[1] = biological target: T1, recombinant AhR-ARNT complex (Homo sapiens, UniProt P35869); assay: Competition radioligand binding assay ([3H]TCDD displacement) on purified recombinant AhR-ARNT; conditions: for competition with [3H]TCDD (in words): 4 nM [3H]TCDD, increasing concentrations of unlabeled competitor
T1 construct: encompassing the bHLH-PAS A-PAS B domains (amino acid residues 23 to 475); His6 (N, cleaved yes); FleB (Yersinia flagellin subunit, residues 54 to 332, UniProt A1JSQ5) expression tag followed by HRV 3C site (N, cleaved yes); made in house; host or cells: E. coli BL21(DE3)
Protocol: Radioligand binding assays were performed as previously established. Briefly, for saturation experiments, 0.5 mg/mL of purified AhR-ARNT or ARNT protein was diluted in MDEG buffer (25 mM MOPS, 1 mM DTT, 1 mM EDTA, 10% glycerol, 20 mM molybdate, pH 7.5) and incubated with increasing concentrations of radioactively labeled [^3H]TCDD tracer. Reactions were supplemented with liver lysate of AhR-deficient mice (AhR^-/-, C57BL/6 background) to a final protein concentration of 5 mg/mL to reduce unspecific binding and adsorption of the tracer to plastic surfaces. Liver lysates were prepared in MDEG buffer by homogenization using the gentleMacs Dissociator (Miltenyi Biotec), followed by ultracentrifugation at 100,000× g and 4 °C for 1 h. Cytosolic fractions were collected, protein concentration determined by Bradford reaction (Protein Assay Kit, Pierce), and further diluted to a final protein concentration of 5 mg/mL in MDEG buffer. […] Subsequently, 30 μL of a Norit A charcoal suspension (100 mg/mL equilibrated in MDEG buffer) was added into each 200 µL of the reaction mixture. Samples were kept on ice for 15 min and centrifuged for another 15 min at 25,000× g and 4 °C. Following this, 150 μL of the supernatant was carefully transferred and radioactivity was measured in a liquid scintillation counter (Tri-Carb 3110TR, PerkinElmer). All samples were measured in triplicate. For competition assays, a constant concentration of [^3H]TCDD (4 nM final) was used, to which a serial dilution of unlabeled competitor molecule dissolved in DMSO was added in excess. All subsequent steps were carried out as described above. The specific binding was defined as the difference of radioactivity between the reactions supplemented with the recombinant protein and AhR-deficient (Ahr^-/-) mouse lysates. Analysis of the data and calculation of the binding constants Kd and receptor density Bmax were performed with GraphPad Prism 7 using a nonlinear regression fitting a saturation binding isotherm. For competition studies, the IC50 values were obtained by fitting a one-site competitive binding equation to the experimental data. Ki values were derived from IC50 using the Cheng–Prusoff equation [19].

[2] = biological target: T1, recombinant AhR-ARNT complex; assay: Label-free microscale thermophoresis (MST) ligand binding
[3] = cited from earlier work
[4] = biological target: T2, purified AhR-ARNT complex (recombinant hAhR23–475 with mARNT85–465) (Homo sapiens, UniProt P35869); assay: Radioligand saturation binding assay with [3H]TCDD on purified recombinant AhR-ARNT; conditions: 4 °C, 24 h
T2 construct: encompassing the bHLH-PAS A-PAS B domains (amino acid residues 23 to 475); His6 (N, cleaved yes); FleB (Yersinia flagellin subunit, residues 54 to 332, UniProt A1JSQ5) expression tag followed by HRV 3C site (N, cleaved yes); made in house; host or cells: E. coli BL21(DE3)
Protocol: Radioligand binding assays were performed as previously established. Briefly, for saturation experiments, 0.5 mg/mL of purified AhR-ARNT or ARNT protein was diluted in MDEG buffer (25 mM MOPS, 1 mM DTT, 1 mM EDTA, 10% glycerol, 20 mM molybdate, pH 7.5) and incubated with increasing concentrations of radioactively labeled [^3H]TCDD tracer. Reactions were supplemented with liver lysate of AhR-deficient mice (AhR^-/-, C57BL/6 background) to a final protein concentration of 5 mg/mL to reduce unspecific binding and adsorption of the tracer to plastic surfaces. Liver lysates were prepared in MDEG buffer by homogenization using the gentleMacs Dissociator (Miltenyi Biotec), followed by ultracentrifugation at 100,000× g and 4 °C for 1 h. Cytosolic fractions were collected, protein concentration determined by Bradford reaction (Protein Assay Kit, Pierce), and further diluted to a final protein concentration of 5 mg/mL in MDEG buffer. […] Following this, 150 μL of the supernatant was carefully transferred and radioactivity was measured in a liquid scintillation counter (Tri-Carb 3110TR, PerkinElmer). All samples were measured in triplicate. […] The specific binding was defined as the difference of radioactivity between the reactions supplemented with the recombinant protein and AhR-deficient (Ahr^-/-) mouse lysates. […]

mARNT = biological target: T3, mARNT (Mus musculus, UniProt P53762, C256S/DEL274-297/DEL351-358); assay: Label-free MST on mARNT alone; format: binding; conditions: Figure S3
T3 construct: Mouse ARNT (residues 85–465) was expressed as N-terminal His6-fusion protein; His6 (N); made in house; host or cells: E. coli BL21(DE3)
Protocol: Microscale thermophoresis (MST) experiments were performed according to the manufacturer’s instructions (NanoTemper Technologies GmbH) using a Monolith NT.LabelFree. In brief, 250 nM of purified AhR-ARNT proteins were diluted in assay buffer (20 mM HEPES pH 8.0, 200 mM NaCl, 5% glycerol, 5 mM DTT, and 0.1% Pluronic F-127) and incubated for 5 min, in the presence of a serial dilution of the different ligands (ligand solubilized in DMSO at a final constant concentration of 2%). After incubation, samples were filled into NT.LabelFree Zero Background MST Premium coated capillaries (NanoTemper Technologies GmbH) and measurements were taken at a constant temperature of 22 °C. MST traces were collected with an LED excitation power of 20% and an MST laser power of 20% and 40%. The MO.Control Analysis software (NanoTemper) was used to analyze the interaction affinity and the dissociation constant (Kd) for each ligand using the Kd fit model. In short, changes in the thermophoretic movement were depicted as changes in the normalized fluorescence ratio before and after heating (ΔFnorm [‰]) and plotted as a function of the ligand concentration. The resulting binding curve is fitted by the software using the best fitting method to derive binding constants and thus the Kd.

endogenous hAhR = biological target: endogenous hAhR; set-up: method as in PMID 2848187; conditions: endogenous hAhR in hepatocyte cell lysates; read-out: equilibrium dissociation constant (Kd); cited from earlier work
murine AhR = conditions: higher affinity of murine AhR than human AhR; cited from earlier work

T1 sequence (P35869 23-475): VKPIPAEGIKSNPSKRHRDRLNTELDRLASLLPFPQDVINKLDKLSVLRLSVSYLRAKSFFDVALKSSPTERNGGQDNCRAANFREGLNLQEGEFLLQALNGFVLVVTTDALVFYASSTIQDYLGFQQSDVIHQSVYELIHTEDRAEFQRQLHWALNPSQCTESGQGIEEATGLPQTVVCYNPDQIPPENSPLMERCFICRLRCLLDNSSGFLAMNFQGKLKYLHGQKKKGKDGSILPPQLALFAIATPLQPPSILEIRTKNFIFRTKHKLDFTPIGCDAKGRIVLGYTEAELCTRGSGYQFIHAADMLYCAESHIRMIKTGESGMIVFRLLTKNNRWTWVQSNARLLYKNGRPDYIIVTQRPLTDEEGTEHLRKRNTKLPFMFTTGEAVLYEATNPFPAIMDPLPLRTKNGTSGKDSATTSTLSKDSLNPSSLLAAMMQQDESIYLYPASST
T1 sequence (P53762 with tags, fused parts or gaps C256S/DEL274-297/DEL351-358 partner): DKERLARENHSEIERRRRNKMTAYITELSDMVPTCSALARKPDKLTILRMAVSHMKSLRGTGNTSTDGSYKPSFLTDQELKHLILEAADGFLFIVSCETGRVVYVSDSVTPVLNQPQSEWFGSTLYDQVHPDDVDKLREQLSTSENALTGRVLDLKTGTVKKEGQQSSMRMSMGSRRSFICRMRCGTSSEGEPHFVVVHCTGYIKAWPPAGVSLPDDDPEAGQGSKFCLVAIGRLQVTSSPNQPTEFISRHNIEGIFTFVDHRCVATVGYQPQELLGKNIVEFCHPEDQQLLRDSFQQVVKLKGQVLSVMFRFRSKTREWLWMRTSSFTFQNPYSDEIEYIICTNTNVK
T2 sequence (P35869 23-475): as the sequence (P35869 23-475) above
T2 sequence (P53762 with tags, fused parts or gaps C256S/DEL274-297/DEL351-358 partner): as the sequence (P53762 with tags, fused parts or gaps C256S/DEL274-297/DEL351-358 partner) above
T3 sequence (P53762 with tags, fused parts or gaps C256S/DEL274-297/DEL351-358): as the sequence (P53762 with tags, fused parts or gaps C256S/DEL274-297/DEL351-358 partner) above

## Oc1cccc2nc3ccccc3nc12 [1-HP, 1-Hydroxyphenazine]
[1]
  Ki: 9200 nM
[2]
  Kd: 943 ± 176 nM

## Cc1ccccc1N=Nc1ccc(NC(=O)c2ccnn2C)c(C)c1 [CH-223191, 2-Methyl-2H-pyrazole-3-carboxylic acid (2-methyl-4-o-tolylazo-phenyl)-amide]
[1]; displacement of 4 nM [3H]TCDD, 24 h, 4 °C, read-out: Ki (from IC50 by Cheng–Prusoff)
  Ki: 12200 nM
[2]; 250 nM AhR-ARNT, 2% DMSO, 22 °C, label-free, read-out: Kd (MST)
  Kd: 496 ± 82 nM

## O=Cc1c2[nH]c3ccccc3c2cc2[nH]c3ccccc3c12 [FICZ, 6-Formylindolo [3,2-b] carbazole]
[1]; 24 h
  competition with [3H]TCDD (in words): failed to see competition
[3]; tryptophan group
  stability in aqueous solution (in words): high instability

## Clc1cc2c(cc1Cl)Oc1cc(Cl)c(Cl)cc1O2 [TCDD, 2,3,7,8-Tetrachlorodibenzo-p-dioxin]
[4]; [3H]TCDD saturation binding
  maximal binding capacity (Bmax): 60.3 ± 17.3 pmoles/mg protein
[4]; [3H]TCDD tracer, 0.5 mg/mL protein, AhR-/- mouse liver lysate added
  Kd: 39 ± 20 nM
[1]; 24 h
  competition with [3H]TCDD (in words): only an initial competition
[1]; increasing protein, constant [3H]TCDD, 48 h, Figure S2
  displacement of [3H]TCDD from AhR-ARNT by unlabeled competitor (in words): displacement by unlabeled dioxin detectable
[2]
  Kd: 139 ± 99 nM
mARNT
  ligand-induced differences in MST traces with mARNT alone (in words): not when mARNT was used alone
Endogenous hAhR
  Kd: 2.7 to 4.2 nM
Murine AhR
  binding affinity of murine AhR relative to human AhR: ~10 fold
[3]
  solubility in water (in words): insolubility in water
